Laboratory results as given in patent publication US9481648B2, “Kinase inhibitors” (Respivert Limited, priority 2013, dated 2016).

Assays:
[1] = target: p38 MAPKα (MAPK14) (Homo sapiens (Human), UniProt Q16539); test: p38 MAPKα enzyme inhibition (FRET, Z-LYTE; Method 2); type: biochemical
Experimental: (§1) The enzyme inhibitory activities of compounds disclosed herein are determined by FRET using synthetic peptides labelled with both donor and acceptor fluorophores (Z-LYTE, Invitrogen Ltd., Paisley, UK).
The inhibitory activities of test compounds against the p38 MAPKα isoform (MAPK14: Invitrogen) are evaluated indirectly by determining the level of activation\phosphorylation of the down-stream molecule, MAPKAP-K2. The p38 MAPKα protein (80 ng/mL, 2.5 μL) is mixed with the test compound (2.5 μL of either 4 μg/mL, 0.4 μg/mL, 0.04 μg/mL or 0.004 μg/mL) for 2 hr at RT. […] The mixture is incubated for 1 hr at RT. Development reagent (protease, 5 μL) is added for 1 hr prior to detection in a fluorescence microplate reader (Vanoskan® Flash, ThermoFisher Scientific).
(§2) In all cases, the site-specific protease cleaves non-phosphorylated peptide only and eliminates the FRET signal. Phosphorylation levels of each reaction are calculated using the ratio of coumarin emission (donor) over fluorescein emission (acceptor), for which high ratios indicate high phosphorylation and low ratios indicate low phosphorylation levels.

[2] = target: c-Src (Homo sapiens (Human), UniProt P12931); test: c-Src enzyme inhibition (FRET, Z-LYTE); type: biochemical
Experimental: as §1
(§3) The relevant enzyme (3000 ng/mL or 2000 ng/mL respectively, 2.5 μL) is incubated with the test compound (either 1 μg/mL, 0.1 μg/mL, 0.01 μg/mL, or 0.001 μg/mL, 2.5 μL each) for 2 hr at RT. The FRET peptides (8 μM, 2.5 μL), and appropriate ATP solutions (2.5 μL, 800 μM for c-Src, and 60 μM ATP for Syk) are then added to the enzymes/compound mixtures and the mixture incubated for 1 hr. Development reagent (protease, 5 μL) is added for 1 hr prior to detection in a fluorescence microplate reader (Varioskan® Flash, ThermoFisher Scientific).
as §2

[3] = target: Syk (Homo sapiens (Human), UniProt P43405); test: Syk enzyme inhibition (FRET, Z-LYTE); type: biochemical
Experimental: as §1, §3, §2

[4] = target: GSK 3α (Homo sapiens (Human), UniProt P49840); test: GSK 3α enzyme inhibition (FRET, Z-LYTE; Method 2); type: biochemical; details: read-out: IC50 Values for Enzyme Inhibition GSK3α
Outline: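 Phosphorylation was taken from the donor (coumarin) to acceptor (fluorescein) emission ratio after 1 h protease development, which cleaves only unphosphorylated peptide. Before that, peptide (8 μM stock) plus ATP (40 μM stock) reacted 1 h. This followed a 105 min RT preincubation of GSK3-α with compound stocks of 10–0.01 μg/mL.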

[5] = system: β-catenin in d-U937 cells; test: Accumulation of β catenin in d-U937 cells (assay m); type: cell-based, human
Experimental: U937 cells, a human monocytic cell line, are differentiated into macrophage-type cells by incubation with PMA (100 ng/mL) for between 48 to 72 hr. The cells are then incubated with either final concentrations of test compound or vehicle for 18 hr. The induction of β-catenin by the test compounds is stopped by replacing the media with 4% formaldehyde solution. Endogenous […] is neutralised by incubating with quenching buffer (100 μL, 0.1% sodium azide, 1% H2O2 in PBS with 0.05% Tween-20) for 20 min. The cells are washed with washing buffer (200 μL; PBS containing 0.05% Tween-20) and incubated with blocking solution (200 μL; 5% milk in PBS) for 1 hr, re-washed with washing buffer (200 μL) and then incubated overnight with anti-β-catenin antibody solution (50 μL) in 1% BSA/PBS (BD, Oxford, UK).
After washing with washing buffer (3×200 μL; PBS containing 0.05% Tween-20), cells are incubated with a HRP-conjugated secondary antibody solution (100 μL) in 1% BSA/PBS (Dako, Cambridge, UK) and the resultant signal is determined colourimetrically (OD: 450 nm with a reference wavelength of 655 nm) using TMB substrate (50 μL; R&D Systems, Abingdon, UK). This reaction is stopped by addition of 1N H2SO4 solution (50 μL). Cells are then washed with washing buffer and 2% crystal violet solution (50 μL) is applied for 30 min. After washing with washing buffer (3×200 μL), 1% SDS (100 μL) is added to each well and the plates are shaken lightly for 1 hr prior to measuring the absorbance at 595 nm (Varioskan® Flash, Thermo-Fisher Scientific).
The measured OD450-655 readings are corrected for cell number by dividing the OD450-655 by the OD595 readings.

Chain of p38 MAPKα (MAPK14) (Q16539 whole entry): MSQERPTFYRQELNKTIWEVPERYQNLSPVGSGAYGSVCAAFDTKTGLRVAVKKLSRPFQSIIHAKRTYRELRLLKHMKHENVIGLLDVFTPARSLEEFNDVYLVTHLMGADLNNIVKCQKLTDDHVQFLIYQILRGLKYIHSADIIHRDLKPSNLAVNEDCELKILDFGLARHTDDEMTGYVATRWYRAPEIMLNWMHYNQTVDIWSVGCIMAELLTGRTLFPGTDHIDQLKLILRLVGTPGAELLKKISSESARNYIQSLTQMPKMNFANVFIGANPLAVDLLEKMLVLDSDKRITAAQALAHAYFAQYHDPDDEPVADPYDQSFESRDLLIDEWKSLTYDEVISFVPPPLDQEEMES
Chain of GSK 3α (P49840 whole entry): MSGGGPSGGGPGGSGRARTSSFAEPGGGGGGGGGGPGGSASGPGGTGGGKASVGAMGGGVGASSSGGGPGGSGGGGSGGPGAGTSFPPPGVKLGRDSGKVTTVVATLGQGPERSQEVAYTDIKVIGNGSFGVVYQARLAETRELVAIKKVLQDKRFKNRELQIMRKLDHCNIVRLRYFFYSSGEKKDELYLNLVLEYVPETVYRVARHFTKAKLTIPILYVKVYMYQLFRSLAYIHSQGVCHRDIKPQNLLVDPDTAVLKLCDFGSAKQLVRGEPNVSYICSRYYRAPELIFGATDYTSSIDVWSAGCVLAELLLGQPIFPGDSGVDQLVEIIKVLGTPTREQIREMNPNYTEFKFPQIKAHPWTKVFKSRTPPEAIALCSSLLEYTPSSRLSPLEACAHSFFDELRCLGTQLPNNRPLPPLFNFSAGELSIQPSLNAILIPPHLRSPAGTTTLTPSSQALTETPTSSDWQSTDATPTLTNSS
Chain of c-Src (P12931 whole entry, looked up): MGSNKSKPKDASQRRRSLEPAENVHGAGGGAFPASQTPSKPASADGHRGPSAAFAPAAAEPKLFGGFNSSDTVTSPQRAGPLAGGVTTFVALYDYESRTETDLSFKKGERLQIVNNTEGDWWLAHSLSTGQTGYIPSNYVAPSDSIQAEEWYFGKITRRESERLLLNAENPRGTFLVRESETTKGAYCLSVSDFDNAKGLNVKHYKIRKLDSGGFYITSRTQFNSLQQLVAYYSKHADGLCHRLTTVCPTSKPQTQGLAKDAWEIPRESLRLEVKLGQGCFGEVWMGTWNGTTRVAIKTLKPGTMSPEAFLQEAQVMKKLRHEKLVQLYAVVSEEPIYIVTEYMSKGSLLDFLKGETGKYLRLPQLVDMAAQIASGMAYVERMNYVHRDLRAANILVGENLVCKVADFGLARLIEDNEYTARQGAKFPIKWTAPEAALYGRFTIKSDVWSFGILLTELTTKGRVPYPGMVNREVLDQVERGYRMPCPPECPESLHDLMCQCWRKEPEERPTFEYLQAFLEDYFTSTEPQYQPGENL

SMILES	IC50 [1] [nM]	IC50 [2] [nM]	IC50 [3] [nM]	IC50 [4] [nM]	% β-catenin induction ([5]; test compound 1 μg/mL) [%]	% β-catenin induction ([5]; test compound 5 μg/mL) [%]	% β-catenin induction ([5]; test compound 10 μg/mL) [%]
COCCOCCOCCOCCOCCOCCOCCOc1cc(Nc2nccc(Oc3ccc(NC(=O)Nc4cc(C(C)(C)C)cc(NS(C)(=O)=O)c4OC)c4ccccc34)n2)cc(OC)c1 [Example 14, N-(3-(3-(4-((2-((3-(2,5,8,11,14,17,20-Heotaoxadocosan-22-yloxy)-5-methoxyphenyl)amino)-pyrimidin-4-yl)oxy)naphthalen-1-yl)ureido)-5-(tert-butyl)-2-methoxyphenyl)-methanesulfonamide]	49	11	106	1010	0	16	14
COCCOCCOCCOc1cc(Nc2nccc(Oc3ccc(NC(=O)Nc4cc(C(C)(C)C)cc(NS(C)(=O)=O)c4OC)c4ccccc34)n2)cc(OC(F)F)c1 [Example 17, N-(5-(tert-Butyl)-3-(3-(4-((2-((3-(difluoromethoxy)-5-(2-(2-(2-methoxyethoxy)ethoxy)-ethoxy)phenyl)amino)pyrimidin-4-yl)oxy)naphthalen-1-yl)ureido)-2-methoxyphenyl)-methanesulfonamide]	179	40	149	5460	5	23	23
COCCOCCOc1cc(Nc2nccc(Oc3ccc(NC(=O)Nc4cc(C(C)(C)C)cc(NS(C)(=O)=O)c4OC)c4ccccc34)n2)cc(OC)c1 [Example 36, N-(5-(tert-Butyl)-2-methoxy-3-(3-(4-((2-((3-methoxy-5-(2-(2-methoxyethoxy)ethoxy)-phenyl)amino)pyrimidin-4-yl)oxy)naphthalen-1-yl)ureido)phenyl)methanesulfonamide]	69	16	67	2090	−4	28	18
C#Cc1cc(Nc2cc(Oc3ccc(NC(=O)Nc4cc(C(C)(C)C)cc(C(=O)NC)c4OC)c4ccccc34)ccn2)cc(C(=O)NCCN2CCOCC2)c1 [Example 39, 5-(tert-Butyl)-3-(3-(4-((2-((3-ethynyl-5-((2-morpholinoethyl)carbamoyl)phenyl)amino)-pyridin-4-yl)oxy)naphthalen-1-yl)ureido)-2-methoxy-N-methylbenzamide]	140	29	571	1600	−11	−12	−18
COCCOCCOCCOc1cc(Nc2nccc(Oc3ccc(NC(=O)Nc4cc(C(C)(C)C)cc(C(=O)NCCN(C)C)c4OC)c4ccccc34)n2)cc(OC)c1 [Example 46, 5-(tert-Butyl)-N-(2-(dimethylamino)ethyl)-2-methoxy-3-(3-(4-((2-((3-methoxy-5-(2-(2-(2-methoxyethoxy)ethoxy)ethoxyl)phenyl)amino)pyrimidin-4-yl)oxy)naphthalen-1-yl)ureido)-benzamide]	110	15	20	636	−2	2	−29
COc1cc(Nc2cc(Oc3ccc(NC(=O)Nc4cc(C(C)(C)C)cc(C(N)=O)c4OC)c4ccccc34)ccn2)cc(C(=O)NCCN2CCOCC2)c1 [Example 47, 3-((4-((4-(3-(5-(tert-Butyl)-3-carbamoyl-2-methoxyphenyl)ureido)naphthalen-1-yl)oxy)pyridin-2-yl)amino)-5-methoxy-N-(2-morpholinoethyl)benzamide]	92	15	169	1600	−5	4	8

Further compounds by falling IC50 [1], results first:

IC50 [1] [nM]	IC50 [2] [nM]	IC50 [3] [nM]	IC50 [4] [nM]	SMILES	% β-catenin induction ([5]; test compound 1 μg/mL) [%]	% β-catenin induction ([5]; test compound 5 μg/mL) [%]	% β-catenin induction ([5]; test compound 10 μg/mL) [%]
229	45	490	5030	C#Cc1cc(Nc2cc(Oc3ccc(NC(=O)Nc4cc(C(C)(C)C)cc(C(N)=O)c4OC)c4ccccc34)ccn2)cc(C(=O)NCCN2CCOCC2)c1 [Example 48, 3-((4-((4-(3-(5-(tert-Butyl)-3-carbamoyl-2-methoxyphenyl)ureido)naphthalen-1-yl)oxy)pyridin-2-yl)amino)-5-ethynyl-N-(2-morpholinoethyl)benzamide]	−2	−4	−3
145	39	455	2160	COCCOCCOCCOCCOCCOCCOCCOc1cc(Nc2cc(Oc3ccc(NC(=O)Nc4cc(C(C)(C)C)cc(NS(C)(=O)=O)c4OC)c4ccccc34)ccn2)cc(OC)c1 [Example 45, N-(3-(3-(4-((2-((3-(2,5,8,11,14,17,20-Heptaoxadocosan-22-yloxy)-5-methoxyphenyl)-amino)pyridin-4-yl)oxy)naphthalen-1-yl)ureido)-5-(tert-butyl)-2-methoxyphenyl)methanesulfonamide]	−4	−7	−14
52	10	76	3120	COc1cc(Nc2nccc(Oc3ccc(NC(=O)Nc4cc(C(C)(C)C)cc(NS(C)(=O)=O)c4OC)c4ccccc34)n2)cc(OCCOCCOCCN2CCOCC2)c1 [Example 18, N-(5-(tert-Butyl)-2-methoxy-3-(3-(4-((2-((3-methoxy-5-(2-(2-(2-mormholinoethoxy)ethoxy)-ethoxy)phenyl)amino)pyrimidin-4-yl)oxy)naphthalen-1-yl)ureido)phenyl)methanesulfonamide]	1	9	17
33	6	29	748	COCCOCCOCCOc1cc(Nc2nccc(Oc3ccc(NC(=O)Nc4cc(C(C)(C)C)cc(C(N)=O)c4OC)c4ccccc34)n2)cc(OC)c1 [Example 20, 5-(tert-Butyl)-2-methoxy-3-(3-(4-((2-((3-methoxy-5-(2-(2-(2-methoxyethoxy)ethoxy)-ethoxy)phenyl)amino)pyrimidin-4-yl)oxy)naphthalen-1-yl)ureido)benzamide]	4	31	29
30	14	549	680	COCCOCCOCCOc1cc(Nc2nccc(Oc3ccc(NC(=O)Nc4cc(NS(C)(=O)=O)cc(C(C)(C)C)c4)c4ccccc34)n2)cc(OC)c1 [Example 24, N-(3-(tert-Butyl)-5-(3-(4-((2-((3-methoxy-5-(2-(2-(2-methoxyethoxy)ethoxy)ethoxy)-phenyl)amino)pyrimidin-4-yl)oxy)naphthalen-1-yl)ureido)phenyl)methanesulfonamide]	−3	27	25
